In patent publication US20240228482A1, “COMPOUNDS, COMPOSITIONS AND METHODS OF TREATING CANCER” (HOTSPOT THERAPEUTICS, INC., priority 2021, published 2024):

target: T1, CBL-B (Homo sapiens, UniProt Q13191); assay: CBL-B TR-FRET IC50 screening (E1/E2 ubiquitination, Biotin-Ubiquitin, Anti GST-Tb donor / Streptavidin-d2 acceptor); type: biochemical; conditions: CBL-B 10 nM final; 11-point titration from 100 uM; binned A-F; read-out: CBL-B TR-FRET activity IC50
T1 construct: GST
T1 sequence (Q13191 whole entry): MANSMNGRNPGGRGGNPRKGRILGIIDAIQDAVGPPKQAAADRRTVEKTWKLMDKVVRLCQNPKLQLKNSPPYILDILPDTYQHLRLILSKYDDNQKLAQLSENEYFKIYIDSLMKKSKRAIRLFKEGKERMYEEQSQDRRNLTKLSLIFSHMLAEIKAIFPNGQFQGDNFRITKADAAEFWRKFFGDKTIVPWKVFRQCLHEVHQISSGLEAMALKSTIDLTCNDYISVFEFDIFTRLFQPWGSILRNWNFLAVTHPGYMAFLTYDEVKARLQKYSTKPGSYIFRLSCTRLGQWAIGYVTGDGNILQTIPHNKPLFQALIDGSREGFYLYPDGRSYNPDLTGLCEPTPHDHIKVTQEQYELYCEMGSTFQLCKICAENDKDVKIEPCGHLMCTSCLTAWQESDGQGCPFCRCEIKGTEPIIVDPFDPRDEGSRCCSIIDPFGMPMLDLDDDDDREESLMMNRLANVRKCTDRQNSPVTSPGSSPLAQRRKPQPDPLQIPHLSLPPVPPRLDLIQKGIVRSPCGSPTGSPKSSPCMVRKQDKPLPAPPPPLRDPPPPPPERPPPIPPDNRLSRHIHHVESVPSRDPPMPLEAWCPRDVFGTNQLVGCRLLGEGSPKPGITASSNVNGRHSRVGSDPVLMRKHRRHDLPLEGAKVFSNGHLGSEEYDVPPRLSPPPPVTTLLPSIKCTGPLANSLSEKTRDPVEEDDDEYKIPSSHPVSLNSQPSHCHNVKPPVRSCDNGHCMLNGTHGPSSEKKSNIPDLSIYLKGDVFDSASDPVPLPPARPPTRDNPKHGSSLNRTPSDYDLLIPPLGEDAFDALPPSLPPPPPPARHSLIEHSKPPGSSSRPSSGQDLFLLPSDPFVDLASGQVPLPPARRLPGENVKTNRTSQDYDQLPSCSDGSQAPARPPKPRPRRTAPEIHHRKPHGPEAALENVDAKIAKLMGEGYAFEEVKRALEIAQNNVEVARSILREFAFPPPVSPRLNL

IC50 [µM]	Compound
< 0.1	CC(C)CN(C)Cc1cc(C(F)(F)F)c2cn(-c3cccc([C@H](c4nncn4C)C4CCC4)c3)c(=O)n2c1 [Compound 246]
< 0.1	CC1CN(Cc2cc(C(F)(F)F)c3cn(-c4cccc([C@H](c5nncn5C)C5CCC5)c4)c(=O)n3c2)CCC1(F)F (single isomer, unassigned) [Compound 172]
< 0.1	Cn1cnnc1[C@@H](c1cccc(-n2cc3c(C(F)(F)F)cc(CN4CCC(C)(F)CC4)cn3c2=O)c1)C1CCC1 (single isomer, unassigned) [Compound 161]
< 0.1	Cn1cnnc1[C@@H](c1cccc(-n2cc3c(C(F)(F)F)cc(CN4CC5(CCCC5)C4)cn3c2=O)c1)C1CCC1 [Compound 295]
< 0.1	C[C@@H]1CN(Cc2cc(C(F)(F)F)c3cn(-c4cccc([C@H](c5nncn5C)C5COC5)c4)c(=O)n3c2)CCO1 [Compound 304]
< 0.1	CN1CCN(Cc2cc(C(F)(F)F)c3cn(-c4cccc([C@H](c5nncn5C)C5CCC5)c4)c(=O)n3c2)CC1=O [Compound 364_P2]
> 10	CC(C)C[C@@H](c1cccc(-n2cc3c(C(F)(F)F)cc(CN4CCC[C@H](C)C4)cn3c2=O)c1)c1nncn1C (single isomer, unassigned) [Compound 152]

Further lines, the compound ahead of its results:

Compound	IC50 [µM]
O=c1n(-c2cccc([C@H](c3nncs3)C3CCC3)c2)cc2c(C(F)(F)F)cc(CN3CCC4(CC4)C3)cn12 [Compound 328]	1 to 3
C[C@H]1CCCN(Cc2cc(C(F)(F)F)c3cn(-c4cccc(C5(c6nncn6C)CCC5)c4)c(=O)n3c2)C1 [Compound 341]	< 0.1
COC1(C[C@H](c2cccc(-n3cc4c(C(F)(F)F)cc(CN5CCC[C@H](C)C5)cn4c3=O)c2)c2nncn2C)CC1 (single isomer, unassigned) [Compound 366]	> 10
C[C@H](c1cc(C(F)(F)F)c2cn(-c3cccc(C4(Cc5nncn5C)COC4)c3)c(=O)n2c1)N1CC2CC2C1 (stereo partly drawn) [Compound 37]	< 0.1
Cn1cnnc1[C@]1(c2cccc(-n3cc4c(C(F)(F)F)cc(C#N)cn4c3=O)c2)C[C@H](C)C1 [Compound 212]	0.1 to 0.3
C=C(C)C[C@H](c1cccc(-n2cc3c(C(F)(F)F)cc(CN4CCC[C@H](C)C4)cn3c2=O)c1)c1nncn1C [Compound 69]	< 0.1
Cn1cnnc1C1(c2cccc(-n3cc4c(C(F)(F)F)cc(Br)cn4c3=O)c2)CC2(CC2)C1 [Compound 103]	0.1 to 0.3
CN(CCO)Cc1cc(C(F)(F)F)c2cn(-c3cccc(C4(Cc5nncn5C)COC4)c3)c(=O)n2c1 [Compound 76]	0.1 to 0.3
CN1CCC(O)(c2cc(C(F)(F)F)c3cn(-c4cccc(C5(Cc6nncn6C)COC5)c4)c(=O)n3c2)CC1 [Compound 182]	0.301 to 1
CN1CCC(c2cc(C(F)(F)F)c3cn(-c4cccc(C5(Cc6nncn6C)COC5)c4)c(=O)n3c2)CC1 (single isomer, unassigned) [Compound 82]	< 0.1
[2H]C([2H])([2H])n1cnnc1CC1(c2cccc(-n3cc4c(C(F)(F)F)cc(CN5CCO[C@H](C)C5)cn4c3=O)c2)COC1 [Compound 199]	< 0.1
CO[C@H]1CCCN(Cc2cc(C(F)(F)F)c3cn(-c4cccc(C5(Cc6nncn6C)COC5)c4)c(=O)n3c2)C1 [Compound 123]	< 0.1
CN1CCCCC1c1cc(C(F)(F)F)c2cn(-c3cccc(C4(Cc5nncn5C)COC4)c3)c(=O)n2c1 (single isomer, unassigned) [Compound 186]	0.1 to 0.3
Cn1cnnc1CC1(c2cccc(-n3cc4c(C(F)(F)F)cc(CN5CCCC(O)C5)cn4c3=O)c2)COC1 (stereo not drawn) [Compound 206]	0.301 to 1
COc1cc(-n2cc3c(C(F)(F)F)cc(CN4CC[C@H](F)C4)cn3c2=O)cc(C2(Cc3nncn3C)COC2)c1 [Compound 109]	< 0.1
Cc1cn(CCO)nc1[C@H](c1cccc(-n2cc3c(C(F)(F)F)cc(CN4CCC[C@H](C)C4)cn3c2=O)c1)C1CCC1 (single isomer, unassigned) [Compound 361]	> 10
CC(Cc1nncn1C)c1cccc(-n2cc3c(C(F)(F)F)cccn3c2=O)c1 (stereo not drawn) [Compound 1]	0.301 to 1
Cn1cnnc1[C@]1(c2cccc(-n3cc4c(C(F)(F)F)cc(CN5CCc6ncsc6C5)cn4c3=O)c2)C[C@@H](C)C1 (single isomer, unassigned) [Compound 309]	0.1 to 0.3
C[C@H]1CCCN(Cc2cc(C(F)(F)F)c3cn(-c4cc([C@H](c5nncn5C)C5CCC5)cc(C(F)(F)F)c4)c(=O)n3c2)C1 (single isomer, unassigned) [Compound 224]	> 10
C[C@@H]1CN(Cc2cc(C(F)(F)F)c3cn(-c4cccc([C@]5(c6nncn6C)C[C@@H](C)C5)c4)c(=O)n3c2)CCO1 (single isomer, unassigned) [Compound 213]	< 0.1
Cc1[nH]nnc1[C@@H](c1cccc(-n2cc3c(C(F)(F)F)cc(CN4CCC[C@H](C)C4)cn3c2=O)c1)C1CCC1 [Compound 327]	< 0.1

same assay, conditions: second part of Table 2 (head 'Patent Cmpd No / Updated Activity'); same CBL-B TR-FRET IC50 bins A-F; read-out: Updated Activity

IC50 [µM]	Compound
3 to 10	C[C@H](c1cc(C(F)(F)F)c2cn(-c3cccc([C@H](c4nncn4C)C4CCC4)c3)c(=O)n2c1)N1CCC[C@H](C(F)(F)F)C1 (single isomer, unassigned) [Compound 580]
< 0.1	C[C@@H]1CCCN(Cc2cc(C(F)(F)F)c3cn(-c4cccc([C@H](c5nncn5C)C5CCC5)c4)c(=O)n3c2)C1 [Compound 491]
< 0.1	C[C@H]1CC(=O)NN1Cc1cc(C(F)(F)F)c2cn(-c3cccc([C@H](c4nncn4C)C4CCC4)c3)c(=O)n2c1 (single isomer, unassigned) [Compound 599]
0.1 to 0.3	CC(=O)N1CCC[C@H](c2cc(C(F)(F)F)c3cn(-c4cccc([C@H](c5nncn5C)C5CCC5)c4)c(=O)n3c2)C1 (single isomer, unassigned) [Compound 396]
< 0.1	C[C@@H](c1cc(C(F)(F)F)c2cn(-c3cccc([C@H](c4nncn4C)C4CCC4)c3)c(=O)n2c1)N1CC[C@H](C#N)C1 (single isomer, unassigned) [Compound 573_P2]
< 0.1	CN(C)C(=O)N(C)Cc1cc(C(F)(F)F)c2cn(-c3cccc([C@H](c4nncn4C)C4CCC4)c3)c(=O)n2c1 [Compound 484]
< 0.1	COC[C@H]1C[C@H]([C@@H](c2cccc(-n3cc4c(C(F)(F)F)cc(CN5CCC[C@H](C)C5)cn4c3=O)c2)c2nncn2C)C1 (single isomer, unassigned) [Compound 494]
< 0.1	CO[C@H]1C[C@@H]([C@H](c2cccc(-n3cc4c(C(F)(F)F)cc(CN5CCC[C@H](C)C5)cn4c3=O)c2)c2nncn2C)C1 (single isomer, unassigned) [Compound 554]
< 0.1	C[C@H]1C[C@@H](O)CN(Cc2cc(C(F)(F)F)c3cn(-c4cccc([C@H](c5nncn5C)C5CCC5)c4)c(=O)n3c2)C1 (single isomer, unassigned) [Compound 587]
< 0.1	C[C@@H]1CN(Cc2cc(C(F)(F)F)c3cn(-c4cccc([C@H](c5nncn5C)C5CCC5)c4)c(=O)n3c2)CC[C@@H]1O (single isomer, unassigned) [Compound 570]
> 10	C[C@H]1CCCN(Cc2cc(C(F)(F)F)c3cn(-c4cccc([C@H](c5nncn5C)[C@H]5C[C@](C)(O)C5)c4)c(=O)n3c2)C1 (single isomer, unassigned) [Compound 575]
< 0.1	C[C@H]1COCCN1Cc1cc(C(F)(F)F)c2cn(-c3cccc([C@H](c4nncn4C)C4CCC4)c3)c(=O)n2c1 [Compound 488]

Continued, compound first:

Compound	IC50 [µM]
C[C@H]1CCCN(Cc2cc(C(F)(F)F)c3cn(-c4cccc([C@H](c5nncn5C(F)F)C5CCC5)c4)c(=O)n3c2)C1 (single isomer, unassigned) [Compound 462]	> 10
CNC(=O)CCc1cc([C@H](c2nncn2C)C2CCC2)cc(-n2cc3c(C(F)(F)F)cccn3c2=O)c1 (single isomer, unassigned) [Compound 559]	> 10
C[C@H]1CCCN(Cc2cc(C(F)(F)F)c3cn(-c4cccc(Cc5cccnn5)c4)c(=O)n3c2)C1 [Compound 431]	> 10
C[C@H]1CCCN(Cc2cc(C(F)(F)F)c3cn(-c4cc(F)cc([C@H](c5nncn5C)C5COC5)c4)c(=O)n3c2)C1 (single isomer, unassigned) [Compound 476]	0.301 to 1
Cn1cnnc1[C@H](c1cc(-c2cnsc2)cc(-n2cc3c(C(F)(F)F)cccn3c2=O)c1)C1CCC1 (single isomer, unassigned) [Compound 456]	> 10
CNC(=O)Cc1cc([C@@H](c2nncn2C)C2CCC2)cc(-n2cc3c(C(F)(F)F)cccn3c2=O)c1 (single isomer, unassigned) [Compound 537]	> 10
CO[C@H]1C[C@](c2cccc(-n3cc4c(C(F)(F)F)cc([C@@H](C)N5CCC[C@H](C)C5)cn4c3=O)c2)(c2nncn2C)C1 (single isomer, unassigned) [Compound 604]	< 0.1
C[C@@H]1CN(Cc2cc(C(F)(F)F)c3cn(-c4cccc([C@H](CC5CCC5)c5nncn5C)c4)c(=O)n3c2)CCO1 [Compound 402]	> 10
Cn1cnnc1[C@H](c1cc(F)cc(-n2cc3c(C(F)(F)F)cc(CN4CC5(CC5)C4)cn3c2=O)c1)C1CCC1 (single isomer, unassigned) [Compound 539]	< 0.1
Cn1cnnc1[C@H](c1cc(-c2nnnn2C)cc(-n2cc3c(C(F)(F)F)cccn3c2=O)c1)C1CCC1 (single isomer, unassigned) [Compound 531]	0.301 to 1
Cn1cnnc1[C@H](c1cc(-c2ccncn2)cc(-n2cc3c(C(F)(F)F)cccn3c2=O)c1)C1CCC1 (single isomer, unassigned) [Compound 441]	> 10
Cn1cnnc1C1(c2cccc(-n3cc4c(C(F)(F)F)cc(CN5CC6(CC6)C5)cn4c3=O)c2)CCC1 [Compound 451]	< 0.1
Cn1cnnc1[C@@H](c1cccc(-n2cc3c(C(F)(F)F)cc(CN4CCC5(CC5)C4)cn3c2=O)c1)C1COC1 [Compound 412]	< 0.1
C[C@H]1CCCN(Cc2cc(C(F)(F)F)c3cn(-c4cccc([C@H](c5nncn5C)N5CC(O)C5)c4)c(=O)n3c2)C1 (single isomer, unassigned) [Compound 406]	0.1 to 0.3
